Consider one compound from patent US20090036474A1, “Quinazoline derivatives for use against cancer” (priority 2004, published 2009).

This assay concerns the target T1, phospho-Tyr751 PDGFRβ (Homo sapiens, UniProt P09619).
T1 construct: phosphorylation of PDGFR expressed on MG63 osteosarcoma cells; endogenous in cells; host or cells: MG63 osteosarcoma cells
As to the kind of experiment: In vitro phospho-Tyr751 PDGFRβ ELISA assay in MG63 osteosarcoma cells, Test (b). It is filed as cell-based. Conditions: MG63 cells stimulated with PDGFBB, read-out: IC50 versus phospho-Tyr751 PDGFRβ. As to the method:
This assay uses a conventional ELISA method to determine the ability of test compounds to inhibit phosphorylation of tyrosine in PDGFRβ.
An MG63 osteosarcoma cell line [American Type Culture Collection (ATCC) CCL 1427] was routinely maintained at 37° C. with 7.5% CO2 in Dulbecco's modified Eagle's growth medium (DMEM; Sigma-Aldrich; Catalogue No. D6546) containing 10% foetal calf serum (FCS; Sigma-Aldrich; Catalogue No. F7524) and 2 mM L-glutamine (Invitrogen Ltd., Paisley, UK; Catalogue No. 25030-024).
For the assay, the cells were detached from the culture flask using a trypsin/ethylenediaminetetraacetic acid (EDTA) mixture (Invitrogen Ltd.; Catalogue No. 15400-054) and resuspended in test media comprising DMEM without phenol red (Sigma-1-Aldrich; Catalogue No. D5921) containing 1% charcoal-stripped-foetal calf serum (FCS) (Sigma-Aldrich; Catalogue No. F7524, stripped by incubation with dextran-coated activated charcoal at 55° C. for 30 minutes with continuous stirring followed by removal of the charcoal by centrifugation and filter sterilisation) and 2 mM L-glutamine (Invitrogen Ltd., Catalogue No. 25030-024) to give 6×10^4 cells per ml. […]
A general note: ELISA stands for enzyme-linked immunosorbent assay.

T1 sequence (P09619 33-1106): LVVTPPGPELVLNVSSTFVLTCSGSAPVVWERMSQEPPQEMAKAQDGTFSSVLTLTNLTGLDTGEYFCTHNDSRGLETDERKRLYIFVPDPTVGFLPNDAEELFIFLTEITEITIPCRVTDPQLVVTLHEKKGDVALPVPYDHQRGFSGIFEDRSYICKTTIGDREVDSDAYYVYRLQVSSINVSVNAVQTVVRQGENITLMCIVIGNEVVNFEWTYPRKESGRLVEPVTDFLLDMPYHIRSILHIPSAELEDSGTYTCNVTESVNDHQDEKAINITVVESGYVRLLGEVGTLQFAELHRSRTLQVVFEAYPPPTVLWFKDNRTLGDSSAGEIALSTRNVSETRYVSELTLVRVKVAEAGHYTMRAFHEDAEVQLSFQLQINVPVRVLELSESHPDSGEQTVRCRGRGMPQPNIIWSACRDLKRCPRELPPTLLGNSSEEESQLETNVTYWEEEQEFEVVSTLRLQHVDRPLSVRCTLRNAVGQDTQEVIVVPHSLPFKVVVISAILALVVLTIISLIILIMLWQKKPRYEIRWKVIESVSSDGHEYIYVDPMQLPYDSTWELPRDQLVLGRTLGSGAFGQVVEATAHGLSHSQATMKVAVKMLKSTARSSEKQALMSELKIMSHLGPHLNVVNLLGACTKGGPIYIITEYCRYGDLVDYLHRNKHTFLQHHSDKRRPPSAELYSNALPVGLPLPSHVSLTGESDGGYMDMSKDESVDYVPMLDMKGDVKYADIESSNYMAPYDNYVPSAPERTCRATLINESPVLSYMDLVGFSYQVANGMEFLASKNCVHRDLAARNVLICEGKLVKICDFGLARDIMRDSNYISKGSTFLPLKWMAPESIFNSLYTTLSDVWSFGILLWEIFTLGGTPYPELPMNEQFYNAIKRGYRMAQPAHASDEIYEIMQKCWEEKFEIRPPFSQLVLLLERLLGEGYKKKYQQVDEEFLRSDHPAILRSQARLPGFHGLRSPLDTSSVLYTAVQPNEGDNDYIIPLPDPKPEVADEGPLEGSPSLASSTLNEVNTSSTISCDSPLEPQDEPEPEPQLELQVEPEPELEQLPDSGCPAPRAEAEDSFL

As a reminder, the IC50 is the midpoint of a concentration-inhibition curve. Regarding `COc1cc2ncnc(Oc3cnn(CC(=O)Nc4cccc5c4OCO5)c3)c2cc1OC` [Example 2, N-(2,3-methylenedioxyphenyl)-2-[4-(6,7-dimethoxyquinazolin-4-yloxy)pyrazol-1-yl]acetamide], the IC50 was around 3 nM.
